In the NIST ThermoML archive (doi:10.1021/je8006937):
Several values for one entry are separate records, joined by “and”; a condition that tells them apart may be missing. Identical values can stand only once.

Settings: Liquid, Pendant drop shape

CCOCCOCCOS(=O)(=O)[O-].CCn1cc[n+](C)c1 [1-ethyl-3-methylimidazolium 2-(2-ethoxyethoxy)ethylsulfate] + O=C=O
Settings	interfacial tension
280.25 K, 100 kPa	36.7 mN/m and 37.3 mN/m
280.26 K, 1170 kPa	30.3 mN/m
280.26 K, 2340 kPa	22.6 mN/m
280.26 K, 3340 kPa	15.5 mN/m
280.28 K, 3950 kPa	9.8 mN/m
280.4 K, 4240 kPa	6.3 mN/m
280.46 K, 5230 kPa	6.6 mN/m
280.46 K, 7030 kPa	6 mN/m
280.49 K, 8960 kPa	5.8 mN/m
280.51 K, 10860 kPa	5.4 mN/m
280.53 K, 12970 kPa	5.4 mN/m
280.54 K, 15110 kPa	5.1 mN/m
280.55 K, 17290 kPa	5.1 mN/m
280.58 K, 20670 kPa	4.7 mN/m
299.4 K, 100 kPa	36.2 mN/m
299.43 K, 4810 kPa	14.9 mN/m
299.43 K, 14740 kPa	6.6 mN/m
299.45 K, 16390 kPa	6.4 mN/m
299.46 K, 17880 kPa	6.2 mN/m
299.47 K, 6680 kPa	8.6 mN/m
299.48 K, 20360 kPa	6 mN/m
299.53 K, 10230 kPa	7.6 mN/m
299.54 K, 12350 kPa	6.8 mN/m
299.55 K, 8330 kPa	7.9 mN/m
319.74 K, 2000 kPa	28.5 mN/m
319.74 K, 3090 kPa	25.1 mN/m
319.74 K, 4040 kPa	22.2 mN/m
319.75 K, 100 kPa	35.5 mN/m and 35.4 mN/m
319.75 K, 1010 kPa	31.5 mN/m
319.75 K, 5010 kPa	19.4 mN/m
319.76 K, 5950 kPa	16.5 mN/m
319.76 K, 8950 kPa	7.6 mN/m
319.78 K, 7260 kPa	13.1 mN/m
319.87 K, 10740 kPa	9.8 mN/m
319.87 K, 12430 kPa	8.9 mN/m
319.95 K, 14470 kPa	8.4 mN/m
319.98 K, 17410 kPa	7.8 mN/m
320.03 K, 20790 kPa	7.7 mN/m

CCCCn1cc[n+](C)c1.CCOCCOCCOS(=O)(=O)[O-] [1-butyl-3-methylimidazolium 2-(2-ethoxyethoxy)ethylsulfate] + O=C=O
Settings	interfacial tension [mN/m]
281.3 K, 1960 kPa	23
281.3 K, 3680 kPa	10.8
281.31 K, 100 kPa	34.5
281.31 K, 3150 kPa	15.1
281.32 K, 1110 kPa	28.2
281.48 K, 4300 kPa	4.6
281.58 K, 5100 kPa	4.5
281.58 K, 6970 kPa	4.5
281.61 K, 9890 kPa	4
281.61 K, 13700 kPa	3.8
281.63 K, 17000 kPa	3.7
281.63 K, 19930 kPa	3.5
281.69 K, 100 kPa	34.3
281.69 K, 1490 kPa	25.4
281.7 K, 600 kPa	30.6
281.7 K, 2830 kPa	17.3
281.7 K, 4160 kPa	6.5
281.84 K, 4340 kPa	4.9
281.86 K, 12130 kPa	4.4
281.87 K, 5900 kPa	4.7
281.91 K, 18060 kPa	3.7
295.14 K, 100 kPa	34
295.2 K, 100 kPa	34.2
295.3 K, 1030 kPa	29.3
295.39 K, 1980 kPa	25
295.5 K, 3350 kPa	18.8
295.8 K, 3950 kPa	16.3
296.03 K, 4960 kPa	12.4
296.29 K, 6150 kPa	12.8
296.31 K, 6630 kPa	5.8
296.35 K, 8190 kPa	5.6
296.42 K, 10120 kPa	5.2
296.5 K, 14370 kPa	4.8
296.53 K, 17640 kPa	4.5
319.53 K, 100 kPa	33.3
319.57 K, 2130 kPa	27.7
319.58 K, 1030 kPa	30.4
319.58 K, 3610 kPa	23.6
319.59 K, 5010 kPa	19.5
319.6 K, 6190 kPa	16.4
319.63 K, 7090 kPa	14
319.69 K, 8100 kPa	12.3
319.71 K, 9070 kPa	7.7
319.78 K, 10070 kPa	7.9
319.78 K, 11080 kPa	8
319.79 K, 11720 kPa	7.9
319.85 K, 14840 kPa	7.6
319.91 K, 17840 kPa	7.1
319.94 K, 20870 kPa	6.7
